Data taken from PMC9953717, “Novel Green Fluorescent Polyamines to Analyze ATP13A2 and ATP13A3 Activity in the Mammalian Polyamine Transport System” (Biomolecules, 2023).

Target: T1, human ATP13A3 WT (A3 WT-OE) (Homo sapiens, UniProt Q9H7F0)
T1 construct: compared with catalytically dead D498N
T1 sequence (Q9H7F0 1-1226): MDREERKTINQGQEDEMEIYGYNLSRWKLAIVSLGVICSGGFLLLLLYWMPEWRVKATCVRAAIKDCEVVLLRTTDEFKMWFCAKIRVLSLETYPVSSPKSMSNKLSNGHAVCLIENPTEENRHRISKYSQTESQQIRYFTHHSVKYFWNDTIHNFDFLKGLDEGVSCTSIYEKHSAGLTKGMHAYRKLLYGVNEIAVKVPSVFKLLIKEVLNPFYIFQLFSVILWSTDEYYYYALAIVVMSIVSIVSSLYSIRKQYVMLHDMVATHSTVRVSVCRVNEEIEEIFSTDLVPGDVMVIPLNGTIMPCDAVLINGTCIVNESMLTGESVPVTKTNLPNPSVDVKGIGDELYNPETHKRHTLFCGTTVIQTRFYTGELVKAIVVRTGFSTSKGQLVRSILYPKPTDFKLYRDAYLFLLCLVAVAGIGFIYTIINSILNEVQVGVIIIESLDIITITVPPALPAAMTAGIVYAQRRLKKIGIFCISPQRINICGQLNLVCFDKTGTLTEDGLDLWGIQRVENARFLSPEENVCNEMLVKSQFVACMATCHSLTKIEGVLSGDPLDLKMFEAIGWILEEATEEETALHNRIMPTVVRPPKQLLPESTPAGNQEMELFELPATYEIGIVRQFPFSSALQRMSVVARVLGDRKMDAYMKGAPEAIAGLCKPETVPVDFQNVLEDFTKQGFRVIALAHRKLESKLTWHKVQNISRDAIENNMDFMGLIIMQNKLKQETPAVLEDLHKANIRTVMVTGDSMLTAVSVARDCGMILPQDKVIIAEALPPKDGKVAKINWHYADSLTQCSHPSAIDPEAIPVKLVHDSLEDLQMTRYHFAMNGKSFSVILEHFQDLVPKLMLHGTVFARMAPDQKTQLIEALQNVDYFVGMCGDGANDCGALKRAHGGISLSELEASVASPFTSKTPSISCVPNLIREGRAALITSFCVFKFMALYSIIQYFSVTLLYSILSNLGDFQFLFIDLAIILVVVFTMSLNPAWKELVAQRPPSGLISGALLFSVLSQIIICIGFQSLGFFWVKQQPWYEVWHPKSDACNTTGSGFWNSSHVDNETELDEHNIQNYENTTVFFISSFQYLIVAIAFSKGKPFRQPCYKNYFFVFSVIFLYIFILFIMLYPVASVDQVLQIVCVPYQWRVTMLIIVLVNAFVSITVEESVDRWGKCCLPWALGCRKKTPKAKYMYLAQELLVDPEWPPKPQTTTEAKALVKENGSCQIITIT
Assay: radiolabeled uptake in HMEC-1 cells, WT versus D498N overexpression
Type: cell-based
Conditions: 30 min, 37 °C, labelled compound

## NCCCCNCCCN [14C-SPD]
  fold uptake at 5 μM: 41 fold

## NCCCCN [14C-PUT]
  fold uptake at 5 μM: 26 fold
